The source of these data is US20250230155A1 (Vanderbilt University, priority 2021, published 2025).

In this assay the target is T1, human mAChR M4 (Homo sapiens, UniProt P08173).
T1 construct: expressed in transfected cells
T1 sequence (P08173 1-479): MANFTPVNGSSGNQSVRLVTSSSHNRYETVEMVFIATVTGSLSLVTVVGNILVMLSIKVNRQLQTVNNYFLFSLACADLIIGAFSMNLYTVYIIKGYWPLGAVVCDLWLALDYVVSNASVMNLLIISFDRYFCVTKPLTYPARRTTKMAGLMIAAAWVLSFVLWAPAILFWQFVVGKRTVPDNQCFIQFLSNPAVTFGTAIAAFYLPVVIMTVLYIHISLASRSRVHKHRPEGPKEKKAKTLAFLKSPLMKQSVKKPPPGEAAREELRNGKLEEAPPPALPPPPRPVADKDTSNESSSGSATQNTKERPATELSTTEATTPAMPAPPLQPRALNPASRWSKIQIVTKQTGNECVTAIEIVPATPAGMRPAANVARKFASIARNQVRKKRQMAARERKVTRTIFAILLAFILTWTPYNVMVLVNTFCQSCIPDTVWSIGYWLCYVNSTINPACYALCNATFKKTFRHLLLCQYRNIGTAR
Put plainly: mAChR M4 cell-based functional assay (calcium mobilization, CHO-K1 hM4-Gqi5 cells). To be noted: for Emax at 30 µM: CHO-K1, % ACh maximum at 30 μM, human M4; for pEC50: positive allosteric modulator activity, increase in the EC20 acetylcholine response, CHO-K1 hM4-Gqi5 cells, read-out: Human M4 EC50; for Emax: CHO-K1. Put shortly:
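CHO-K1 cells stably expressing human M4 with chimeric Gqi5, loaded with Fluo-4 AM; compounds given as 11-point 1:3 curves and calcium flux read on FDSS at 1 Hz. Acetylcholine EC20 added at 144 s, EC80 at 230 s; agonist, PAM (EC20 potentiation) and antagonist (EC80 inhibition) EC50/Emax from four-parameter fits.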
A general note: A change in cytosolic calcium serves as a functional read-out for many receptors and channels.

pEC50: −log10 of the molar value. Where only a bound is given, the exact number is not on record here.

As usually defined, the Emax is the size of the effect at its maximum, as opposed to the concentration needed. Broadly, the pEC50 is the EC50 on a negative log10 scale, so that one unit is a factor of ten. With `Cc1cc(C(=O)NC2CCCCC2)cnc1N1CCc2ncccc2C1` [compound 66, N-cyclohexyl-6-(7,8-dihydro-5H-1,6-naphthyridin-6-yl)-5-methyl-pyridine-3-carboxamide], the Emax at 30 µM was 47% and the negative logarithm of the EC50 (pEC50) was at most 5.00.

For the molecule `Cc1cc(C#N)cnc1N1CCc2ncc(Nc3cccnc3F)cc2C1` [compound 166, 6-[3-[(2-fluoro-3-pyridyl)amino]-7,8-dihydro-5H-1,6-naphthyridin-6-yl]-5-methyl-pyridine-3-carbonitrile], the Emax was 106% and the pEC50 is 7.35.

`Cc1cc(C(=O)NCc2nccs2)cnc1N1CCc2ncc(-c3c(C)noc3C)cc2C1` [compound 172, 6-[3-(3,5-dimethylisoxazol-4-yl)-7,8-dihydro-5H-1,6-naphthyridin-6-yl]-5-methyl-N-(thiazol-2-ylmethyl)pyridine-3-carboxamide]: the maximal response (Emax) at 30 µM came out at 93% and the negative-log EC50 (pEC50) was 7.11.

Regarding `Cc1c(C#N)nnc(N2CCc3ncc(-c4ccc(C5CC5)nc4)cc3C2)c1C` [Example 301, 6-(3-(6-cyclopropylpyridin-3-yl)-7,8-dihydro-1,6-naphthyridin-6(5H)-yl)-4,5-dimethylpyridazine-3-carbonitrile], the Emax at 30 µM turned out to be 57% and the pEC50 is 6.58.

For the molecule `Cc1c(C#N)nnc(N2CCc3ncc(Nc4ccnn4C)cc3C2)c1C` [compound 169, 4,5-dimethyl-6-[3-[(2-methylpyrazol-3-yl)amino]-7,8-dihydro-5H-1,6-naphthyridin-6-yl]pyridazine-3-carbonitrile], the Emax at 30 µM was found to be 100% and the negative-log EC50 (pEC50) is 6.95.

`Cc1nc(Cl)c(C)c(N2CCc3ncc(Oc4ccc(F)cc4)cc3C2)n1` [compound 202, 6-(6-chloro-2,5-dimethyl-pyrimidin-4-yl)-3-(4-fluorophenoxy)-7,8-dihydro-5H-1,6-naphthyridine]: the Emax at 30 µM turned out to be 78% and the negative logarithm of the EC50 (pEC50) is 6.04.

Regarding `Cc1cc(C(=O)NCc2cnc(Cl)s2)cnc1N1CCc2ncccc2C1` [compound 134, N-[(2-chlorothiazol-5-yl)methyl]-6-(7,8-dihydro-5H-1,6-naphthyridin-6-yl)-5-methyl-pyridine-3-carboxamide], the Emax at 30 µM is 69% and the negative-log EC50 (pEC50) was 5.79.

`Cc1cnc2c(c1)CN(c1nc(C)nc(Cl)c1C)CC2` [compound 209, 6-(6-chloro-2,5-dimethyl-pyrimidin-4-yl)-3-methyl-7,8-dihydro-5H-1,6-naphthyridine]: the Emax came out at 95% and the negative-log EC50 (pEC50) was 6.77.

In the case of `Cc1c(C#N)nnc(N2CCc3ncc(-c4ccc(N(C)C)nc4)cc3C2)c1C` [Example 312, 6-(3-(6-(dimethylamino)pyridin-3-yl)-7,8-dihydro-1,6-naphthyridin-6(5H)-yl)-4,5-dimethylpyridazine-3-carbonitrile], the Emax at 30 µM is 50% and the pEC50 was 6.34.

Regarding `Cc1cc(C#N)cnc1N1CCc2ncc(N3CCCc4ncccc43)cc2C1` [Example 362, 6-(3-(3,4-dihydro-1,5-naphthyridin-1(2H)-yl)-7,8-dihydro-1,6-naphthyridin-6(5H)-yl)-5-methylnicotinonitrile], the maximal effect (Emax) at 30 µM stood at 96% and the negative logarithm of the EC50 (pEC50) was 7.12.

Regarding `Cc1cc2n(n1)CCCN2c1cnc2c(c1)CN(c1nnc(C#N)cc1C)CC2` [Example 382, 5-methyl-6-(3-(2-methyl-6,7-dihydropyrazolo[1,5-a]pyrimidin-4(5H)-yl)-7,8-dihydro-1,6-naphthyridin-6(5H)-yl)pyridazine-3-carbonitrile], the Emax at 30 µM was 98% and the negative-log EC50 (pEC50) is 7.13.

Turning to `Cc1cnccc1CNC(=O)c1cnc(N2CCc3ncc(-c4cn(C)nc4C)cc3C2)c(C)c1` [Example 451, 6-(3-(1,3-dimethyl-1/-pyrazol-4-yl)-7,8-dihydro-1,6-naphthyridin-6(5H)-yl)-5-methyl-N-((3-methylpyridin-4-yl)methyl)nicotinamide], the maximal effect (Emax) at 30 µM is 92% and the negative logarithm of the EC50 (pEC50) is 6.82.

As to `Cc1cc(F)c(F)cc1-c1cnc2c(c1)CN(c1ncc(C#N)cc1C)CC2` [Example 595, 6-(3-(4,5-difluoro-2-methylphenyl)-7,8-dihydro-1,6-naphthyridin-6(5H)-yl)-5-methylnicotinonitrile], the Emax at 30 µM is 38% and the negative-log EC50 (pEC50) was 5.35.

As to `[2H]C1([2H])Cc2ncc(Nc3ccncc3C)cc2C([2H])([2H])N1c1ncc(C#N)cc1C` [Example 610, 5-methyl-6-(3-((3-methylpyridin-4-yl)amino)-7,8-dihydro-1,6-naphthyridin-6(5H)-yl-5,5,7,7-d4)nicotinonitrile], the maximum response (Emax) at 30 µM stood at 70% and the negative-log EC50 (pEC50) is 7.23.

On to `Cc1cc(F)ncc1-c1cnc2c(c1)CN(c1ncc(C#N)cc1C)CC2` [Example 436, 6-(3-(6-fluoro-4-methylpyridin-3-yl)-7,8-dihydro-1,6-naphthyridin-6(5H)-yl)-5-methylnicotinonitrile], for which the Emax at 30 µM worked out at 98% and the negative logarithm of the EC50 (pEC50) was 7.16.

Turning to `Cc1cc(C(=O)NCc2ccc3nn[nH]c3c2)cnc1N1CCc2ncccc2C1` [compound 150, N-(3H-benzotriazol-5-ylmethyl)-6-(7,8-dihydro-5H-1,6-naphthyridin-6-yl)-5-methyl-pyridine-3-carboxamide], the maximum response (Emax) at 30 µM was 61% and the negative-log EC50 (pEC50) is 5.33.

For `Cc1c(C#N)nnc(N2CCc3ncc(-c4cc(F)nc(F)c4)cc3C2)c1C` [compound 75, 6-[3-(2,6-difluoro-4-pyridyl)-7,8-dihydro-5H-1,6-naphthyridin-6-yl]-4,5-dimethyl-pyridazine-3-carbonitrile], the maximal effect (Emax) at 30 µM worked out at 58% and the negative-log EC50 (pEC50) was 6.18.

Turning to `Cc1cc(C(=O)NC2CC2)cnc1N1CCc2ncccc2C1` [compound 64, N-cyclopropyl-6-(7,8-dihydro-5H-1,6-naphthyridin-6-yl)-5-methyl-pyridine-3-carboxamide], the Emax at 30 µM was determined as 59% and the negative logarithm of the EC50 (pEC50) was at most 5.00.

Consider `Cc1cc(C(=O)NCc2ccc(C#N)nc2)cnc1N1CCc2ncc(-c3cn(C)nc3C)cc2C1` [Example 456, N-((6-cyanopyridin-3-yl)methyl)-6-(3-(1,3-dimethyl-1H-pyrazol-4-yl)-7,8-dihydro-1,6-naphthyridin-6(5H)-yl)-5-methylnicotinamide], for which the maximal effect (Emax) at 30 µM amounted to 75% and the pEC50 was 6.05.

`Cc1c(C(=O)NCc2cncs2)nnc(N2CCc3ncccc3C2)c1C` [compound 138, 6-(7,8-dihydro-5H-1,6-naphthyridin-6-yl)-4,5-dimethyl-N-(thiazol-5-ylmethyl)pyridazine-3-carboxamide]: the Emax at 30 µM is 96% and the pEC50 is 5.95.

Consider `COC1CN(C(=O)c2cc(C)c(N3CCc4ncc(CC(F)(F)F)cc4C3)nn2)C1` [Example 589, (3-methoxyazetidin-1-yl)(5-methyl-6-(3-(2,2,2-trifluoroethyl)-7,8-dihydro-1,6-naphthyridin-6(5H)-yl)pyridazin-3-yl)methanone], for which the Emax at 30 µM was 99% and the negative logarithm of the EC50 (pEC50) was 6.76.

For `Cc1cc(C#N)cnc1N1CCc2nc(C)c(N3CCOC(C)(C)C3)cc2C1` [Example 377, 6-(3-(2,2-dimethylmorpholino)-2-methyl-7,8-dihydro-1,6-naphthyridin-6(5H)-yl)-5-methylnicotinonitrile], the maximal effect (Emax) worked out at 76% and the pEC50 is 6.12.

`Cc1ccc(Oc2cnc3c(c2)CN(c2nc(C)nc(C)c2C)CC3)c(F)c1` [compound 269, 3-(2-fluoro-4-methylphenoxy)-6-(2,5,6-trimethylpyrimidin-4-yl)-5,6,7,8-tetrahydro-1,6-naphthyridine]: the Emax at 30 µM stood at 89% and the negative logarithm of the EC50 (pEC50) is 5.97.

Turning to `Cc1c(C#N)nnc(N2CCc3ncc(Oc4cc(F)ccc4F)cc3C2)c1C` [Example 353, 6-(3-(2,5-difluorophenoxy)-7,8-dihydro-1,6-naphthyridin-6(5H)-yl)-4,5-dimethylpyridazine-3-carbonitrile], the maximal response (Emax) at 30 µM was 73% and the negative-log EC50 (pEC50) was 6.90.

Regarding `Cc1cc(C#N)cnc1N1CCc2ncc(-c3cnn(CC(C)C)c3)cc2C1` [compound 112, 6-[3-(1-isobutylpyrazol-4-yl)-7,8-dihydro-5H-1,6-naphthyridin-6-yl]-5-methyl-pyridine-3-carbonitrile], the Emax at 30 µM was found to be 76% and the pEC50 is 6.33.

Consider `Cc1cc(C#N)cnc1N1CCc2ncc(Oc3cccc(F)c3F)cc2C1` [Example 350, 6-(3-(2,3-difluorophenoxy)-7,8-dihydro-1,6-naphthyridin-6(5H)-yl)-5-methylnicotinonitrile], for which the Emax at 30 µM is 84% and the pEC50 was 6.26.

As for `[2H]C([2H])([2H])c1cnc2c(c1)CN(c1nnc(C#N)cc1C)CC2` [Example 421, 5-methyl-6-(3-(methyl-d3)-7,8-dihydro-1,6-naphthyridin-6(5H)-yl)pyridazine-3-carbonitrile], the Emax amounted to 89% and the pEC50 was 6.47.
